Test results taken from US20020049199A1, “N-linked carbamates and ureas of heterocyclic thioesters” (priority 1996, published 2002).
pEC50: −log10 of the molar value. Where two headings read alike, the source gives them in different places.

How the values were obtained:
FKBP = FKBP (Homo sapiens, UniProt P62942); test: Ki test procedure: inhibition of peptidyl-prolyl isomerase (rotamase) activity, chymotrypsin-coupled assay; assay type: biochemical; details: apparent Ki
Excerpt: Inhibition of the peptidyl-prolyl isomerase (rotamase) activity of the inventive compounds can be evaluated by known methods described in the literature (Harding, et al., Nature, 1989, 341:758-760; Holt et al. J. Am. Chem. Soc., 115:9923-9938). The cis-trans isomerization of an alanine-proline bond in a model substrate, N-succinyl-Ala-Ala-Pro-Phe-p-nitroanilide, is monitored spectrophotometrically in a chymotrypsin-coupled assay, which releases para-nitroanilide from the trans form of the substrate. The inhibition of this reaction caused by the addition of different concentrations of inhibitor is determined, and the data is analyzed as a change in first-order rate constant as a function of inhibitor concentration to yield the apparent Ki values.
In a plastic cuvette are added […] of ice cold assay buffer (25 mM HEPES, pH 7.8, 100 mM NaCl), […] of FKBP (2.5 mM in 10 mM Tris-Cl pH 7.5, 100 mM NaCl, 1 mM dithiothreitol), 25 mL of chymotrypsin (50 mg/ml in 1 mM HCl) and […] of test compound at various concentrations in dimethyl sulfoxide. The reaction is initiated by the addition of 5 mL of substrate (succinyl-Ala-Phe-Pro-Phe-para-nitroanilide, 5 mg/mL in 2.35 mM LiCl in trifluoroethanol).
The absorbance at 390 nm versus time is monitored for 90 seconds using a spectrophotometer and the rate constants are determined from the absorbance versus time data files.
The data for these experiments for representative compounds are presented in Table II under the column “Ki”.

[1] = tested on: chick dorsal root ganglia; test: Chick dorsal root ganglion cultures and neurite outgrowth; assay type: cell-based; details: neurite outgrowth, 48 hours after drug treatment, Table II (b), ranked potency, read-out: ED50, nMa
Protocol: Dorsal root ganglia were dissected from chick embryos of ten day gestation. Whole ganglion explants were cultured on thin layer Matrigel-coated 12 well plates with Liebovitz L15 plus high glucose media supplemented with 2 mM glutamine and 10% fetal calf serum, and also containing 10 μM cytosine β-D arabinofuranoside (Ara C) at 37° C. in an environment containing 5% CO2. Twenty-four hours later, the DRGs were treated with various immunophilin ligands. Forty-eight hours after drug treatment, the ganglia were visualized under phase contrast or Hoffman Modulation contrast with a Zeiss Axiovert inverted microscope. Photomicrographs of the explants were made, and neurite outgrowth was quantitated. Neurites longer than the DRG diameter were counted as positive, with total number of neurites quantitated per each experimental condition. Three to four DRGs are cultured per well, and each treatment was performed in duplicate.
The data for these experiments for representative compounds are presented in Table II under the column “ED50”.

Chain of FKBP (P62942 whole entry): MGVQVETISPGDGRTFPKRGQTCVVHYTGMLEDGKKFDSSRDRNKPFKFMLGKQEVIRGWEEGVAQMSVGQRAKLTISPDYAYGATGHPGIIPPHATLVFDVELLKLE

| Compound | Ki (FKBP; Table II (c), numerical) | pEC50 [1] | Ki (FKBP; Table II (a), ranked potency) | also measured |
| --- | --- | --- | --- | --- |
| 3,3-Diphenylpropyl (2S)-1-[(1,1,3,3-tetramethylbutyl)carbamoyl]-2-pyrrolidinecarbothioate [Compound 29] | 5150 nM | 6.70 to 7.29 | – | – |
| 3,3-Diphenylpropyl (2S)-1-[(2,4-dimethoxyphenyl)carbamoyl]-2-pyrrolidinecarbothioate [Compound 33] | – | – | > 500 nM | – |
| 3-(2,3,5-Trimethylphenyl)propyl 1-(1-adamantylcarbamoyl)-2-pyrrolidinecarbothioate [Compound 19] | – | 6.70 to 7.29 | 201 to 500 nM | – |
| 3-(2,3,5-Trimethylphenyl)propyl 1-(cyclohexylcarbamoyl)-2-pyrrolidinecarbothioate [Compound 20] | – | 7.30 to 9.00 | 51 to 200 nM | – |
| 3-(2-Fluorophenyl)propyl (2S)-1-(1-adamantylcarbamoyl)-2-pyrrolidinecarbothioate [Compound 22] | – | > 9.00 | 1 to 50 nM | – |
| 3-(2-Fluorophenyl)propyl (2S)-1-(cyclohexylcarbamoyl)-2-pyrrolidinecarbothioate [Compound 23] | – | 7.30 to 9.00 | 1 to 50 nM | – |
| 3-(3,4,5-Trimethoxyphenyl)propyl (2S)-1-(benzylcarbamoyl)-2-pyrrolidinecarbothioate [Compound 40] | 82 nM | – | – | – |
| 3-(3,4,5-Trimethoxyphenyl)propyl (2S)-1-(hexylcarbamoyl)-2-pyrrolidinecarbothioate [Compound 39] | 31 nM | – | – | – |
| 3-(3,5-Dimethoxyphenyl)propyl (2S)-1-{[(1S)-1-(1-naphthyl)ethyl]-carbamoyl}-2-pyrrolidinecarbothioate [Compound 28] | 8090 nM | > 9.00 | – | – |
| 3-(3,5-Dimethoxyphenyl)propyl (2S)-1-{[(1S,2R)-2-phenyl-cyclopropyl]carbamoyl]-2-pyrrolidinecarbothioate [Compound 34] | – | – | > 500 nM | – |
| 3-(3-Fluorophenyl)propyl (2S)-1-(Cyclohexylcarbamoyl)-2-pyrrolidinecarbothioate [Compound 21] | – | > 9.00 | 1 to 50 nM | – |
| 3-(4-Methylphenyl)propyl (2S)-1-(1-adamantylcarbamoyl)-2-pyrrolidinecarbothioate [Compound 25] | 209 nM | 7.30 to 9.00 | – | – |
| 3-(4-Methylphenyl)propyl (2S)-1-(cyclohexylcarbamoyl)-2-pyrrolidinecarbothioate [Compound 24] | 605 nM | 7.30 to 9.00 | – | – |
| 3-(4-Methylphenyl)propyl (2S)-1-(tert-butylcarbamoyl)-2-pyrrolidinecarbothioate [Compound 26] | 739 nM | > 9.00 | – | – |
| 3-Cyclohexylpropyl (2S)-1-(hexylcarbamoyl)-2-pyrrolidinecarbothioate [Compound 32] | – | – | > 500 nM | – |
| 3-Cyclohexylpropyl (2S)-1-[(2,6-diisopropylphenyl)carbamoyl]-2-pyrrolidinecarbothioate [Compound 31] | – | – | > 500 nM | – |
| 3-Phenylpropyl (2S)-1-(1-adamantylcarbamoyl)-2-pyrrolidinecarbothioate [Compound 36] | – | – | 201 to 500 nM | – |
| 3-Phenylpropyl (2S)-1-(1-cyclohexylcarbamoyl)-2-pyrrolidinecarbothioate [Compound 17] | – | 6.70 to 7.29 | – | Ki (FKBP; Table II (a), ranked potency, listed as 4): 51 to 200 nM |
| 3-Phenylpropyl (2S)-1-(1-cyclohexylcarbamoyl)-2-pyrrolidinecarbothioate [Compound 37] | – | – | – | Ki (FKBP; Table II (a), ranked potency, listed as 23): > 500 nM |
| 3-Phenylpropyl (2S)-1-(1-pyrrolidinylcarbamoyl)-2-pyrrolidinecarbothioate [Compound 42] | 525 nM | – | – | – |
| 3-Phenylpropyl (2S)-1-(dimethylcarbamoyl)-2-pyrrolidinecarbothioate [Compound 41] | 722 nM | – | – | – |
| 3-Phenylpropyl (2S)-1-[(2,4-Dimethoxyphenyl)carbamoyl]-2-pyrrolidinecarbothioate [Compound 35] | – | – | > 500 nM | Ki (FKBP; Table II (c), numerical, listed as 21): 795 nM |
| CCC(C)CNC(=O)N1CCC[C@H]1C(=O)SCCCc1cccnc1 (stereo partly drawn) [Compound 1, 3-(3-Pyridyl)-1-propylmercaptyl 2S-1-[(2-methylbutyl)carbamoyl]pyrrolidine-2-carboxylate] | – | – | 1 to 50 nM | pEC50 ([1]; Gallus gallus): > 9.00 |
| CCC(C)(C)NC(=O)N1CCC[C@H]1C(=O)SCCCc1cccnc1 [Compound 2] | – | – | 51 to 200 nM | pEC50 ([1]; Gallus gallus): 7.30 to 9.00 |
| O=C(SCCCc1cccnc1)[C@@H]1CCCN1C(=S)NC1CCCCC1 [Compound 7, 3-(3-pyridyl)-1-propylmercaptyl 2S-1-[(cyclohexyl)thiocarbamoyl]-pyrrolidine-2-carboxylate] | – | 7.30 to 9.00 | 51 to 200 nM | – |
| O=C(SCCCc1ccccc1Cl)[C@@H]1CCCN1C(=O)NC1CCCCC1 [Compound 27] | 1490 nM | 7.30 to 9.00 | – | – |
| O=C(SCCCc1ccccc1)[C@@H]1CCCN1C(=S)NC12CC3CC(CC(C3)C1)C2 [Compound 38] | 659 nM | – | – | – |
| O=C(SCCCc1ccccc1)[C@@H]1CCCN1C(=O)N1CCOCC1 [Compound 43, 3-Phenylpropyl (2S)-1-(morphilinocarbamoyl)-2-pyrrolidinecarbothioate] | 3740 nM | – | – | – |
| Phenethyl (2S)-N-(cyclohexylcarbamoyl)-2-pyrrolidinecarbothioate [Compound 18] | – | 7.30 to 9.00 | 51 to 200 nM | – |
